Reference: paper PMC8781629, “Identification of an Amylomaltase from the Halophilic Archaeon Haloquadratum walsbyi by Functional Metagenomics: Structural and Functional Insights” (Life, 2022)

Molecular target: T1, Hw-A (H. walsbyi amylomaltase) (Haloquadratum walsbyi, UniProt Q18H55)
T1 construct: gene malQ; full length plus 21 vector residues incl; N-terminal His6 tag (p15TV-L), E. coli Origami (DE3), about 67 kDa, tag not reported cut
Test: starch transglycosylation, decrease of starch-iodine absorbance at […] nm
Assay type: biochemical
Settings: acceptor substrate (best of those tested), 0.05%; donor 0.15% starch; 50 mM sodium phosphate pH 7, 1 M NaCl, 40 °C, 1 h

T1 sequence (Q18H55 entry or part of it): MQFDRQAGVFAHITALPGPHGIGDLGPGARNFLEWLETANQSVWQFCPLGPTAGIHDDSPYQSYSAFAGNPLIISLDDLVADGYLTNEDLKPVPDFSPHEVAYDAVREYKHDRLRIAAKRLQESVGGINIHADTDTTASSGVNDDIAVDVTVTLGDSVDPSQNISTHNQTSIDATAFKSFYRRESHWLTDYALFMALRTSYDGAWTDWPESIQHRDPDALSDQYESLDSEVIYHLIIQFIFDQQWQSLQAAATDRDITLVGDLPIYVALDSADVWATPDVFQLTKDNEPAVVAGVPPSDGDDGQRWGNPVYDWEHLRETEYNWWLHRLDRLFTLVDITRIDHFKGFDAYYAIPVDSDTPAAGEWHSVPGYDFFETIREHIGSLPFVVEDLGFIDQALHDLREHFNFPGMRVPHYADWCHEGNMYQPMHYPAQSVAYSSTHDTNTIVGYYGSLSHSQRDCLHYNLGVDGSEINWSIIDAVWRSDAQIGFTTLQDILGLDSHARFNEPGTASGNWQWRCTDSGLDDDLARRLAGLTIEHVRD

OC[C@H]1O[C@H](O[C@H]2[C@H](O)[C@@H](O)[C@@H](O[C@H]3[C@H](O)[C@@H](O)C(O)O[C@@H]3CO)O[C@@H]2CO)[C@H](O)[C@@H](O)[C@@H]1O (stereo partly shown) [maltotriose]
starch transglycosylation, decrease of starch-iodine absorbance at 620 nm: The assays indicated maltotriose as the best acceptor for starch degradation
